The values that follow come from publication PMC7070694, “Identification of New Peptides from Fermented Milk Showing Antioxidant Properties: Mechanism of Action” (Antioxidants, 2020).

Peptide text beside a SMILES is read from it.

This series can be described thus: MTT cell viability (cytotoxicity). Conditions: human, Caco-2 cells (1 × 10^4), synthetic peptides 0.05 mg/mL, no TbOOH, mean ± SD of at least three experiments, read-out: Percentage of Cell Viability, None (c). In kind it is cell-based.

As to `CC(C)[C@H](NC(=O)[C@H](CCC(=O)O)NC(=O)[C@@H]1CCCN1C(=O)[C@H](Cc1ccccc1)NC(=O)[C@@H]1CCCN1)C(=O)N[C@@H](Cc1ccccc1)C(=O)NCC(=O)N[C@@H](CCCCN)C(=O)N[C@@H](CCC(=O)O)C(=O)O` [P-9-E] (H-PFPEVFGKE-OH), the viability at 24 h, 50 µg/mL was found to be 101 ± 14.5%.

On to `CC[C@H](C)[C@H](NC(=O)[C@H](CCC(N)=O)NC(=O)[C@H](C)NC(=O)[C@@H]1CCCN1C(=O)[C@H](CO)NC(=O)[C@H](CCCNC(=N)N)NC(=O)[C@@H](NC(=O)[C@H](C)N)C(C)C)C(=O)N[C@@H](CC(C)C)C(=O)N[C@@H](CCC(N)=O)C(=O)N[C@@H](Cc1c[nH]c2ccccc12)C(=O)N[C@@H](CCC(N)=O)C(=O)O` [A-12-Q] (H-AVRSPAQILQWQ-OH), for which the viability at 24 h, 50 µg/mL came out at 102 ± 4.69%.

Turning to `CC(C)C[C@H](NC(=O)[C@H](Cc1ccc(O)cc1)NC(=O)[C@H](CCC(N)=O)NC(=O)[C@@H]1CCCN1C(=O)[C@H](CC(C)C)NC(=O)[C@H](C)N)C(=O)N[C@@H](CCCCN)C(=O)N[C@H](C(=O)N[C@H](C(=O)N[C@@H](Cc1ccc(O)cc1)C(=O)N[C@@H](CCC(N)=O)C(=O)N[C@@H](Cc1c[nH]cn1)C(=O)N[C@@H](CCC(N)=O)C(=O)N[C@@H](CCCCN)C(=O)O)C(C)C)[C@@H](C)O` [A-14-K] (H-ALPQYLKTVYQHQK-OH), the viability at 24 h, 50 µg/mL was determined as 84.4 ± 9.69%.

For the compound `CSCC[C@H](NC(=O)[C@H](CCC(=O)O)NC(=O)[C@H](CCCCN)NC(=O)[C@@H](N)Cc1c[nH]cn1)C(=O)N1CCC[C@H]1C(=O)N[C@@H](Cc1ccccc1)C(=O)N1CCC[C@H]1C(=O)N[C@@H](CCCCN)C(=O)N[C@@H](Cc1ccc(O)cc1)C(=O)N1CCC[C@H]1C(=O)N[C@H](C(=O)N[C@@H](CCC(=O)O)C(=O)N1CCC[C@H]1C(=O)N[C@@H](Cc1ccccc1)C(=O)N[C@H](C(=O)N[C@@H](CCC(=O)O)C(=O)N[C@@H](CO)C(=O)N[C@@H](CCC(N)=O)C(=O)O)[C@@H](C)O)C(C)C` [H-18-Q] (H-HKEMPFPKYPVEPFTESQ-OH), the viability at 24 h, 50 µg/mL amounted to 91.9 ± 8.99%.

For `CC(C)C[C@H](NC(=O)[C@@H](NC(=O)[C@H](CCCCN)NC(=O)[C@H](CO)NC(=O)[C@H](CCC(N)=O)NC(=O)[C@@H](N)CO)C(C)C)C(=O)N1CCC[C@H]1C(=O)N[C@H](C(=O)N1CCC[C@H]1C(=O)N[C@@H](CCC(N)=O)C(=O)N[C@@H](CCCCN)C(=O)N[C@@H](C)C(=O)N[C@H](C(=O)N1CCC[C@H]1C(=O)N[C@@H](Cc1ccc(O)cc1)C(=O)N1CCC[C@H]1C(=O)N[C@@H](CCC(N)=O)C(=O)O)C(C)C)C(C)C` [S-17-Q] (H-SQSKVLPVPQKAVPYPQ-OH), the viability at 24 h, 50 µg/mL turned out to be 101 ± 7.46%.

With `CC[C@H](C)[C@H](NC(=O)[C@H](CCC(=O)O)NC(=O)CNC(=O)[C@@H]1CCCN1C(=O)[C@@H](NC(=O)[C@@H](N)CC(N)=O)C(C)C)C(=O)N[C@H](C(=O)N[C@@H](CCC(=O)O)C(=O)N[C@@H](CO)C(=O)N[C@@H](CC(C)C)C(=O)O)C(C)C` [N-10-L] (H-NVPGEIVESL-OH), the viability at 24 h, 50 µg/mL stood at 120 ± 15.7%.

On to `CSCC[C@H](NC(=O)[C@H](Cc1c[nH]c2ccccc12)NC(=O)[C@@H](N)CO)C(=O)N[C@@H](Cc1c[nH]cn1)C(=O)N[C@@H](CCC(N)=O)C(=O)N1CCC[C@H]1C(=O)N[C@@H](Cc1c[nH]cn1)C(=O)N[C@@H](CCC(N)=O)C(=O)N1CCC[C@H]1C(=O)N[C@@H](CC(C)C)C(=O)N1CCC[C@H]1C(=O)N1CCC[C@H]1C(=O)N[C@H](C(=O)O)[C@@H](C)O` [S-13-T] (H-SWMHQPHQPLPPT-OH), for which the viability at 24 h, 50 µg/mL came out at 107 ± 12.4%.

As for `CC[C@H](C)[C@H](NC(=O)[C@H](CCC(=O)O)NC(=O)[C@@H]1CCCN1C(=O)[C@@H]1CCCN1C(=O)[C@H](CO)NC(=O)[C@H](CCC(=O)O)NC(=O)[C@@H](NC(=O)[C@@H](N)C(C)C)[C@@H](C)CC)C(=O)N[C@@H](CC(N)=O)C(=O)N[C@H](C(=O)N[C@H](C(=O)N[C@@H](CCC(N)=O)C(=O)O)C(C)C)[C@@H](C)O` [V-12-Q] (H-VIESPPEINTVQ-OH), the viability at 24 h, 50 µg/mL was found to be 113 ± 3.52%.

For `CC(C)[C@H](NC(=O)[C@@H]1CCCN1C(=O)[C@H](Cc1ccc(O)cc1)NC(=O)[C@H](CCCCN)NC(=O)[C@@H]1CCCN1C(=O)[C@@H](N)Cc1ccccc1)C(=O)N[C@@H](CCC(=O)O)C(=O)N1CCC[C@H]1C(=O)N[C@@H](Cc1ccccc1)C(=O)O` [F-9-F] (H-FPKYPVEPF-OH), the viability at 24 h, 50 µg/mL is 109 ± 12.7%.

With `CC[C@H](C)[C@H](NC(=O)[C@H](CCCCN)NC(=O)[C@H](CCCCN)NC(=O)[C@H](CC(C)C)NC(=O)[C@@H](N)Cc1ccccc1)C(=O)N[C@@H](CO)C(=O)N[C@@H](CCC(N)=O)C(=O)N[C@@H](CCCNC(=N)N)C(=O)N[C@@H](Cc1ccc(O)cc1)C(=O)N[C@@H](CCC(N)=O)C(=O)N[C@@H](CCCCN)C(=O)N[C@@H](Cc1ccccc1)C(=O)O` [F-12-F] (H-FLKKISQRYQKF-OH), the viability at 24 h, 50 µg/mL came out at 97.7 ± 19.2%.

For `CC[C@H](C)[C@H](N)C(=O)N[C@@H](CC(N)=O)C(=O)N[C@@H](CC(N)=O)C(=O)N[C@@H](CCC(N)=O)C(=O)N[C@@H](Cc1ccccc1)C(=O)N[C@@H](CC(C)C)C(=O)N1CCC[C@H]1C(=O)N[C@@H](Cc1ccc(O)cc1)C(=O)N1CCC[C@H]1C(=O)N[C@@H](Cc1ccc(O)cc1)C(=O)N[C@@H](Cc1ccc(O)cc1)C(=O)N[C@@H](C)C(=O)N[C@@H](CCCCN)C(=O)N1CCC[C@H]1C(=O)N[C@@H](C)C(=O)O` [I-15-A] (H-INNQFLPYPYYAKPA-OH), the viability at 24 h, 50 µg/mL came out at 104 ± 5.12%.

As for `CC[C@H](C)[C@H](N)C(=O)N[C@@H](CCC(N)=O)C(=O)N1CCC[C@H]1C(=O)N[C@@H](CCCCN)C(=O)N[C@H](C(=O)N[C@@H](CCCCN)C(=O)N[C@H](C(=O)N[C@H](C(=O)N1CCC[C@H]1C(=O)N[C@@H](Cc1ccc(O)cc1)C(=O)N[C@H](C(=O)N[C@@H](CCCNC(=N)N)C(=O)N[C@@H](Cc1ccc(O)cc1)C(=O)N[C@@H](CC(C)C)C(=O)O)C(C)C)[C@@H](C)CC)C(C)C)[C@@H](C)O` [I-14-L] (H-IQPKTKVIPYVRYL-OH), the viability at 24 h, 50 µg/mL was 93 ± 13.6%.

In the case of `CC[C@H](C)[C@H](NC(=O)[C@@H](NC(=O)[C@H](CC(N)=O)NC(=O)[C@@H](NC(=O)[C@@H](NC(=O)[C@@H]1CCCN1C(=O)[C@@H](NC(=O)[C@H](CCC(=O)O)NC(=O)[C@@H](NC(=O)[C@H](CCCCN)NC(=O)[C@@H](N)CC(=O)O)[C@@H](C)O)[C@@H](C)CC)[C@@H](C)O)[C@@H](C)CC)[C@@H](C)O)C(=O)N[C@@H](C)C(=O)N[C@@H](CO)C(=O)NCC(=O)N[C@@H](CCC(=O)O)C(=O)N1CCC[C@H]1C(=O)N[C@H](C(=O)O)[C@@H](C)O` [D-17-T] (H-DKTEIPTINTIASGEPT-OH), the viability at 24 h, 50 µg/mL is 104 ± 5.62%.

On to `CC[C@H](C)[C@H](NC(=O)[C@H](CCCCN)NC(=O)[C@@H](NC(=O)[C@@H](NC(=O)[C@@H]1CCCN1C(=O)[C@@H](NC(=O)CNC(=O)[C@@H](NC(=O)[C@H](CC(=O)O)NC(=O)[C@H](CC(=O)O)NC(=O)[C@H](CCCCN)NC(=O)[C@@H](N)CCC(=O)O)[C@@H](C)O)[C@@H](C)O)[C@@H](C)CC)[C@@H](C)O)C(=O)N[C@@H](CCC(=O)O)C(=O)N[C@@H](CC(C)C)C(=O)N[C@H](C(=O)N1CCC[C@H]1C(=O)N[C@@H](CO)C(=O)N[C@@H](Cc1c[nH]cn1)C(=O)O)C(C)C` [E-18-H] (H-EKDDTGTPITKIELVPSH-OH), for which the viability at 24 h, 50 µg/mL was 104 ± 5.01%.

On to `CC(C)C[C@H](NC(=O)[C@H](CC(C)C)NC(=O)[C@H](CC(N)=O)NC(=O)[C@H](CCC(=O)O)NC(=O)[C@H](CC(N)=O)NC(=O)[C@H](CC(C)C)NC(=O)[C@@H](NC(=O)[C@H](CCC(=O)O)NC(=O)[C@H](CCC(N)=O)NC(=O)[C@@H]1CCCN1C(=O)[C@H](CC(C)C)NC(=O)CNC(=O)[C@H](CCC(N)=O)NC(=O)[C@H](Cc1c[nH]cn1)NC(=O)[C@@H](N)CCCCN)C(C)C)C(=O)O` [K-15-L] (H-KHQGLPQEVLNENLL-OH), for which the viability at 24 h, 50 µg/mL worked out at 105 ± 14.5%.

Regarding `CC[C@H](C)[C@H](NC(=O)[C@@H]1CCCN1C(=O)[C@@H](NC(=O)[C@H](Cc1ccc(O)cc1)NC(=O)[C@@H](N)CCCCN)[C@@H](C)CC)C(=O)N[C@@H](CCC(N)=O)C(=O)N[C@@H](Cc1ccc(O)cc1)C(=O)N[C@H](C(=O)N[C@@H](CC(C)C)C(=O)N[C@@H](CO)C(=O)O)C(C)C` [K-10-S] (H-KYIPIQYVLS-OH), the viability at 24 h, 50 µg/mL was determined as 97.3 ± 6.69%.

As to `CC(C)C[C@H](NC(=O)[C@H](Cc1ccccc1)NC(=O)[C@@H]1CCCN1C(=O)[C@@H]1CCCN1C(=O)[C@@H](NC(=O)[C@@H](N)C(C)C)C(C)C)C(=O)N[C@@H](CCC(N)=O)C(=O)N1CCC[C@H]1C(=O)N[C@@H](CCC(=O)O)C(=O)O` [V-9-E] (H-VVPPFLQPE-OH), the viability at 24 h, 50 µg/mL was determined as 107 ± 8.02%.

In the case of `CC[C@H](C)[C@H](NC(=O)CNC(=O)[C@H](Cc1ccc(O)cc1)NC(=O)[C@H](CO)NC(=O)[C@@H]1CCCN1C(=O)[C@H](Cc1ccc(O)cc1)NC(=O)[C@H](CCCNC(=N)N)NC(=O)[C@H](CO)NC(=O)[C@H](CC(C)C)NC(=O)[C@@H](NC(=O)[C@H](Cc1ccc(O)cc1)NC(=O)[C@@H](N)CCC(N)=O)C(C)C)C(=O)N[C@@H](CC(N)=O)C(=O)O` [Q-13-N] (H-QYVLSRYPSYGIN-OH), the viability at 24 h, 50 µg/mL stood at 104 ± 6.64%.

Consider `CC[C@H](C)[C@H](NC(=O)[C@@H]1CCCN1C(=O)CNC(=O)[C@@H]1CCCN1C(=O)[C@H](Cc1ccccc1)NC(=O)[C@@H]1CCCN1C(=O)[C@H](Cc1ccc(O)cc1)NC(=O)[C@@H](N)C(C)C)C(=O)N1CCC[C@H]1C(=O)N[C@@H](CC(N)=O)C(=O)O` [V-10-N] (H-VYPFPGPIPN-OH), for which the viability at 24 h, 50 µg/mL turned out to be 111 ± 9.93%.
